From ChEMBL document CHEMBL1201862, “PubChem BioAssay data set” (2004) come the findings set out here.

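Each compound was tested at five concentrations against cells in 96-well plates for 48 hours. GI50 is the concentration that inhibits growth by half.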 Activity calls are given as the source filed them. Rule as the data show it: active = GI50 up to about 1.1 µM and inactive = higher.

Some test systems named below: ACHN; DLD-1; HCC 2998; KM-20L2; M14; Malme-3M; OVCAR-3; OVCAR-5; OVCAR-8; RPMI-8226; SF-539; U-251; UACC-257; UACC-62; UO-31; XF498; SK-MEL-28.
Holding throughout (test): growth of human tumour cells (NCI), 48 h

Take `Cn1c(=O)nc2n(-c3ccc(Br)cc3)c3ccccc3nc-2c1=O`: the GI50 in the assay on ACHN is 0.543 µM (active); in the assay with DLD-1 it was 4.05 µM (inactive); in the assay with HCC 2998, 2.21 µM (inactive); in the assay with KM-20L2, 2.54 µM (inactive); with M14, 3.75 µM (inactive); with Malme-3M, 3.61 µM (inactive). For the same compound, the GI50 in the assay on OVCAR-3 is 2.48 µM (inactive); in the assay on OVCAR-5 it was 13.6 µM (inactive); in the assay on OVCAR-8, 3.38 µM (inactive); in the assay on RPMI-8226, 3.16 µM (inactive); with SF-539 it was 5.85 µM (inactive); in the assay on U-251, 5.12 µM (inactive). For the same compound, the GI50 in the assay on UACC-257 is 2.69 µM (inactive); in the assay on UACC-62, 1.3 µM (inactive); in the assay on UO-31, 10.4 µM (inactive); in the assay on XF498, 12.1 µM (inactive).
In the case of `O=C1CSC(Cc2nc3ccccc3[nH]2)=N1`, the GI50 in the assay on ACHN was 5.41 µM (inactive); with DLD-1, 18.2 µM (inactive); in the assay on HCC 2998 it was 18.3 µM (inactive); in the assay with KM-20L2, 14.1 µM (inactive); in the assay on M14 it was 15.4 µM (inactive); in the assay with Malme-3M it was 10.6 µM (inactive). The GI50 in the assay on OVCAR-3 is 14.3 µM (inactive); with OVCAR-5, 28.8 µM (inactive); in the assay with OVCAR-8 it was 23.5 µM (inactive); with RPMI-8226, 13.7 µM (inactive); with SF-539, 20.7 µM (inactive); in the assay with SK-MEL-28 it was 16 µM (inactive). For the same compound, the GI50 in the assay on U-251 is 17.3 µM (inactive); with UACC-257, 19.7 µM (inactive); with UACC-62, 15.1 µM (inactive); with UO-31, 20.6 µM (inactive); in the assay on XF498, 20.4 µM (inactive).
For the compound `CCC(COC(=O)CC[C@@H](NC(=O)C(C)NC(=O)C(C)OC1C(O)C(CO)OC(OCc2ccccc2)C1NC(C)=O)C(N)=O)NC1c2ccccc2Nc2cccc([N+](=O)[O-])c21` (some centres not stated), the GI50 in the assay with ACHN, in the assay on DLD-1, in the assay with HCC 2998, with KM-20L2, in the assay on M14 and in the assay on Malme-3M was > 100 µM (inactive) each time. The GI50 is 80.2 µM (inactive) with OVCAR-3; > 100 µM (inactive) in the assay with OVCAR-5; > 100 µM (inactive) in the assay on OVCAR-8; > 100 µM (inactive) with RPMI-8226; > 100 µM (inactive) in the assay on SF-539; > 100 µM (inactive) in the assay with SK-MEL-28. Besides, the GI50 with U-251, in the assay with UACC-257, with UACC-62, in the assay with UO-31 and in the assay on XF498 was > 100 µM (inactive) each time.
For `COC(=O)C12CC(c3ccccc31)C1C(=O)OC(=O)C12` (configuration not stated), the GI50 in the assay on ACHN, in the assay with DLD-1, with HCC 2998, in the assay on KM-20L2, in the assay on M14 and in the assay on Malme-3M was > 100 µM (inactive) throughout. The GI50 with OVCAR-3, in the assay on OVCAR-5, in the assay on OVCAR-8, in the assay on RPMI-8226, in the assay on SF-539 and with SK-MEL-28 was > 100 µM (inactive) each time. The GI50 in the assay with U-251, in the assay on UACC-257, in the assay with UACC-62, with UO-31 and in the assay with XF498 was > 100 µM (inactive) throughout.
Take `CC(=O)Nc1ccc(C(=O)NN2C(=O)C(Cl)C2c2cc(Br)cc(Br)c2O)cc1` (configuration not stated): the GI50 in the assay with ACHN, with DLD-1, with HCC 2998, in the assay with KM-20L2, with M14 and in the assay with Malme-3M was > 100 µM (inactive) throughout. Besides, the GI50 is > 100 µM (inactive) with OVCAR-3; > 100 µM (inactive) in the assay on OVCAR-5; > 100 µM (inactive) in the assay with OVCAR-8; > 100 µM (inactive) in the assay on RPMI-8226; > 100 µM (inactive) in the assay with SF-539; > 10 µM (inactive) with SK-MEL-28. Also, the GI50 in the assay with U-251, with UACC-257, in the assay with UACC-62, with UO-31 and in the assay with XF498 was > 100 µM (inactive) in each case.
`C#CCCCCC#CC1CCCC1C1=CC(=O)c2ccccc21` (configuration not stated): the GI50 is 6.9 µM (inactive) with ACHN; 8.71 µM (inactive) in the assay with DLD-1; 12.6 µM (inactive) in the assay with HCC 2998; 10.3 µM (inactive) in the assay with KM-20L2; 5.07 µM (inactive) in the assay on M14; 6.55 µM (inactive) in the assay on Malme-3M. The GI50 was 5.3 µM (inactive) in the assay on OVCAR-3; 11.5 µM (inactive) in the assay on OVCAR-5; 1.66 µM (inactive) in the assay with OVCAR-8; 1.98 µM (inactive) in the assay with RPMI-8226; 8.93 µM (inactive) in the assay on SF-539; 5.18 µM (inactive) with SK-MEL-28. The GI50 in the assay on U-251 is 4.43 µM (inactive); in the assay with UACC-257, 11.2 µM (inactive); in the assay on UACC-62 it was 2.05 µM (inactive); in the assay on UO-31, 8.17 µM (inactive); in the assay with XF498, 8.36 µM (inactive).
For `N#CC(OC1OC(COC2OC(CO)C(O)C(O)C2O)C(O)C(O)C1O)c1ccccc1` (configuration not stated), the GI50 in the assay with DLD-1 was > 225 µM (inactive); with HCC 2998 it was > 225 µM (inactive); in the assay with KM-20L2, > 225 µM (inactive); in the assay with Malme-3M, > 225 µM (inactive); with OVCAR-3, > 225 µM (inactive); in the assay on OVCAR-5, > 191 µM (inactive). For the same compound, the GI50 in the assay on OVCAR-8, with RPMI-8226, in the assay with SF-539, with SK-MEL-28, in the assay with U-251 and with UACC-257 was > 225 µM (inactive) throughout. For the same compound, the GI50 with UACC-62, in the assay on UO-31 and with XF498 was > 225 µM (inactive) in each case.
Consider `COC(=O)c1ccc(/N=N/N(C)CO)cc1`, for which the GI50 in the assay on ACHN was 80.2 µM (inactive); in the assay on DLD-1, 98.6 µM (inactive); with HCC 2998 it was > 100 µM (inactive); in the assay with KM-20L2, > 100 µM (inactive); in the assay with M14 it was 71.1 µM (inactive); in the assay on Malme-3M it was > 100 µM (inactive). In addition, the GI50 is 91.4 µM (inactive) in the assay with OVCAR-3; > 100 µM (inactive) with OVCAR-5; 83.2 µM (inactive) with OVCAR-8; > 100 µM (inactive) in the assay on RPMI-8226; 57.4 µM (inactive) in the assay on SF-539; > 100 µM (inactive) in the assay with SK-MEL-28. The GI50 is 48.6 µM (inactive) in the assay on U-251; > 100 µM (inactive) in the assay with UACC-257; 51.1 µM (inactive) with UACC-62; > 100 µM (inactive) with UO-31; 9.44 µM (inactive) with XF498.
Consider `O=C(O)CCc1cccc2c1oc1c(CCC(=O)O)cccc12`, for which the GI50 in the assay on ACHN, in the assay on DLD-1, with HCC 2998, with KM-20L2, in the assay with M14 and with Malme-3M was > 100 µM (inactive) in each case. Besides, the GI50 with OVCAR-3, with OVCAR-5, in the assay with OVCAR-8, with RPMI-8226, in the assay with SF-539 and in the assay with SK-MEL-28 was > 100 µM (inactive) in each case. Also, the GI50 in the assay on U-251, in the assay with UACC-257, in the assay with UACC-62, in the assay with UO-31 and in the assay on XF498 was > 100 µM (inactive) throughout.
In the case of `O=C(CSSCC(=O)Nc1ccc(Br)cc1)Nc1ccc(Br)cc1`, the GI50 in the assay with ACHN was 15.8 µM (inactive); with DLD-1, 18.1 µM (inactive); with HCC 2998, 22.1 µM (inactive); with KM-20L2, 15.1 µM (inactive); in the assay on M14, 17.7 µM (inactive); in the assay on Malme-3M, 21.8 µM (inactive). Besides, the GI50 with OVCAR-3 was 18.1 µM (inactive); with OVCAR-5, 18.2 µM (inactive); with OVCAR-8, 17.3 µM (inactive); in the assay on RPMI-8226, 21.6 µM (inactive); with SF-539, 17.6 µM (inactive); in the assay on SK-MEL-28, 18.5 µM (inactive). The GI50 in the assay with U-251 was 14.4 µM (inactive); with UACC-257, 20.7 µM (inactive); in the assay with UACC-62, 15.9 µM (inactive); with UO-31 it was 17.7 µM (inactive); in the assay with XF498, 20.1 µM (inactive).
As to `CSCC[C@@H](NC(=O)[C@H](CC(C)C)NC(=O)C(Cc1cnc[nH]1)NC(=O)CNC(=O)[C@@H](NC(=O)[C@H](C)NC(=O)[C@H](Cc1c[nH]c2ccccc12)NC(=O)[C@H](CCC(N)=O)NC(=O)[C@@H](N)CC(N)=O)C(C)C)C(N)=O` (some centres not stated), the GI50 in the assay on DLD-1, in the assay on HCC 2998, in the assay with KM-20L2, in the assay on Malme-3M, with OVCAR-3 and in the assay on OVCAR-5 was > 100 µM (inactive) in each case. The GI50 in the assay on OVCAR-8 was > 100 µM (inactive); in the assay on RPMI-8226, > 100 µM (inactive); in the assay with SF-539 it was > 100 µM (inactive); in the assay on SK-MEL-28, > 100 µM (inactive); in the assay with U-251 it was > 100 µM (inactive); in the assay with UACC-257, > 88.7 µM (inactive). The GI50 in the assay on UACC-62, with UO-31 and in the assay with XF498 was > 100 µM (inactive) each time.
